Results taken from ChEMBL document CHEMBL3091388, “New cytotoxic benzosuberene analogs. Synthesis, molecular modeling and biological evaluation” (Bioorg Med Chem Lett, 2013).

Legend:
NCI-N87 = experiment: Cytotoxicity against human NCI-N87 cells assessed as cell viability after 4 days by MTS assay; type: functional, cell-based; details: NCI-N87, 96 h
CYP2C8 = target: T1, CYP2C8 (Homo sapiens, UniProt P10632); experiment: Inhibition of CYP2C8 (unknown origin) at 3 uM; type: ADME
T1 sequence (P10632 whole entry): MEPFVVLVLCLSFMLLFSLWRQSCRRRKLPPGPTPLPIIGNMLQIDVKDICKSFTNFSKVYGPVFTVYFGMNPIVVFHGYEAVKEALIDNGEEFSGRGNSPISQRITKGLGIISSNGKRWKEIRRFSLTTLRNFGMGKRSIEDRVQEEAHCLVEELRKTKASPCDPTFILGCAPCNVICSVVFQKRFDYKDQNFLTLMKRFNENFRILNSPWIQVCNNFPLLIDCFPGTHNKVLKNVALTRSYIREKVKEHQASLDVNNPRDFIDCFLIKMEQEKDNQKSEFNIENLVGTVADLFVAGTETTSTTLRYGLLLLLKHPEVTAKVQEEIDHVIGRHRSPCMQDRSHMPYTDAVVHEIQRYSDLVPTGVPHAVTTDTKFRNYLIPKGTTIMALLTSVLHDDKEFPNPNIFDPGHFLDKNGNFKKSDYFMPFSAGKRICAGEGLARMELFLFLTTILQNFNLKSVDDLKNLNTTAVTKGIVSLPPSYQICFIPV

CYP3A4 = CYP3A4 (Homo sapiens, UniProt P08684); experiment: Inhibition of CYP3A4 (unknown origin) at 3 uM; type: ADME
Chain of CYP3A4 (P08684 whole entry): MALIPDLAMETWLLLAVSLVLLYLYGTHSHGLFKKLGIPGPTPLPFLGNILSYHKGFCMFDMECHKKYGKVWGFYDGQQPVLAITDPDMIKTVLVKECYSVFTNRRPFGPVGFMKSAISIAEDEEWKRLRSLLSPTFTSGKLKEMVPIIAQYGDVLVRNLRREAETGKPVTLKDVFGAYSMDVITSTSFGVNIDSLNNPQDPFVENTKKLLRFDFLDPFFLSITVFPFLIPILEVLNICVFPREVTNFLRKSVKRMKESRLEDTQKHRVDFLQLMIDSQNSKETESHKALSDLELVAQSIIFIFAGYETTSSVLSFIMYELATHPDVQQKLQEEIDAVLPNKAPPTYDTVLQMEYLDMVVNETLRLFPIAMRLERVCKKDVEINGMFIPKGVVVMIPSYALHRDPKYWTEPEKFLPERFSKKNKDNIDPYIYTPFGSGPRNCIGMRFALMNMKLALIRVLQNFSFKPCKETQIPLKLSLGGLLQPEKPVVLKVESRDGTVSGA

CYP2D6 = CYP2D6 (Homo sapiens, UniProt P10635); experiment: Inhibition of CYP2D6 (unknown origin) at 3 uM; type: ADME
Chain of CYP2D6 (P10635 whole entry): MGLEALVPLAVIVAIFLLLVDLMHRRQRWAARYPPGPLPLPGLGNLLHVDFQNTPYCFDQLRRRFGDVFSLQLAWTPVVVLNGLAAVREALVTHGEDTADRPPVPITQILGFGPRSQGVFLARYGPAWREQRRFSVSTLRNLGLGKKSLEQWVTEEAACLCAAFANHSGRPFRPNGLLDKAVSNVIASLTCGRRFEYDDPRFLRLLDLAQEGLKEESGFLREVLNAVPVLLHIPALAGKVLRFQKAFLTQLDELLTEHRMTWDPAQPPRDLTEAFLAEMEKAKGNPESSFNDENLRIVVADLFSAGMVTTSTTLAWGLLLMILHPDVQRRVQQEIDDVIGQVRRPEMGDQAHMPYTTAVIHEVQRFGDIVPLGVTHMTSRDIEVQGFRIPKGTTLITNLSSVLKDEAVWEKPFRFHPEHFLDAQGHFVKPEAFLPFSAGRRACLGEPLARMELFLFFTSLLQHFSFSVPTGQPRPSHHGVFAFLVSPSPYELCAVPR

[1] = Apparent intrinsic clearance in human liver microsomes at 1 uM; type: ADME; details: read-out: CLH(app)
HUVEC = experiment: Cytotoxicity against HUVEC assessed as cell viability after 4 days by MTS assay; type: cell-based; details: Homo sapiens, 96 h
MDA-MB-468 = experiment: Cytotoxicity against human MDA-MB-468 cells assessed as cell viability after 4 days by MTS assay; type: functional, cell-based; details: MDA-MB-468, 96 h
CYP2C9 = CYP2C9 (Homo sapiens, UniProt P11712); experiment: Inhibition of CYP2C9 (unknown origin) at 3 uM; type: ADME
Chain of CYP2C9 (P11712 whole entry): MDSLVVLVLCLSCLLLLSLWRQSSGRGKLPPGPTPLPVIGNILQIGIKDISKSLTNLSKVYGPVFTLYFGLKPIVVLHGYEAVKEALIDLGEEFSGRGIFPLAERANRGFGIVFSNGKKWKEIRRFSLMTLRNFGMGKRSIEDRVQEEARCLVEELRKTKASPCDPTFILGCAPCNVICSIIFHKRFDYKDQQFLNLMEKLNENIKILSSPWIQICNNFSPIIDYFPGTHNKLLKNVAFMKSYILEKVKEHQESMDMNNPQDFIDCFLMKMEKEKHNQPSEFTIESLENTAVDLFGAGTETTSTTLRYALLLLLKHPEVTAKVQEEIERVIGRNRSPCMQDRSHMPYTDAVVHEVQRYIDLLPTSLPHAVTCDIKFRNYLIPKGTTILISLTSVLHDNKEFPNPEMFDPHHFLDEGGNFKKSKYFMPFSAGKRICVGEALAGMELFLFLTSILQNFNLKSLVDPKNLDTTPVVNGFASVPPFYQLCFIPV

CYP1A2 = target: T2, CYP1A2 (Homo sapiens, UniProt P05177); experiment: Inhibition of CYP1A2 (unknown origin) at 3 uM; type: ADME
T2 sequence (P05177 whole entry): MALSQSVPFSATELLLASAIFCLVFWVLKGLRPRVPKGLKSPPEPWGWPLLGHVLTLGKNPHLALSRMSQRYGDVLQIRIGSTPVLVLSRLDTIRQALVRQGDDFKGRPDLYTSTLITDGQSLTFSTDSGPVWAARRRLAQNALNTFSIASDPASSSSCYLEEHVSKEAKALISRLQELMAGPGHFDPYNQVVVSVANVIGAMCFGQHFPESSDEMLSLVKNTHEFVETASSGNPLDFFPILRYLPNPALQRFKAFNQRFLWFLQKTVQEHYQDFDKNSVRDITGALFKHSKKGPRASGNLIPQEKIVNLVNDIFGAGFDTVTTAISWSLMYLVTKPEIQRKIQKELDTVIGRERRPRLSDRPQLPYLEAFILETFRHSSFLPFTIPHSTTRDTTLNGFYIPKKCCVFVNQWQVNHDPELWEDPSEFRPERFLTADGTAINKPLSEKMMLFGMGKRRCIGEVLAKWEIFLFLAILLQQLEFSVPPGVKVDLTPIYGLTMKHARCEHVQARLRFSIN

BT-474 = experiment: Cytotoxicity against human BT474 cells assessed as cell viability after 4 days by MTS assay; type: functional, cell-based; details: BT-474, 96 h
[2] = Apparent permeability from apical to basolateral side in RRCK cells; type: ADME, cell-based, Canis lupus familiaris, MDCKII-LE; details: dog, MDCK
MDR1 (ABCB1, P-gp) = MDR1 (ABCB1, P-gp) (Homo sapiens, UniProt P08183); experiment: Activity at MDR1 (unknown origin) expressed in MDCK cells assessed as efflux ratio of permeability at 2 uM; type: ADME, cell-based
Chain of MDR1 (ABCB1, P-gp) (P08183 whole entry): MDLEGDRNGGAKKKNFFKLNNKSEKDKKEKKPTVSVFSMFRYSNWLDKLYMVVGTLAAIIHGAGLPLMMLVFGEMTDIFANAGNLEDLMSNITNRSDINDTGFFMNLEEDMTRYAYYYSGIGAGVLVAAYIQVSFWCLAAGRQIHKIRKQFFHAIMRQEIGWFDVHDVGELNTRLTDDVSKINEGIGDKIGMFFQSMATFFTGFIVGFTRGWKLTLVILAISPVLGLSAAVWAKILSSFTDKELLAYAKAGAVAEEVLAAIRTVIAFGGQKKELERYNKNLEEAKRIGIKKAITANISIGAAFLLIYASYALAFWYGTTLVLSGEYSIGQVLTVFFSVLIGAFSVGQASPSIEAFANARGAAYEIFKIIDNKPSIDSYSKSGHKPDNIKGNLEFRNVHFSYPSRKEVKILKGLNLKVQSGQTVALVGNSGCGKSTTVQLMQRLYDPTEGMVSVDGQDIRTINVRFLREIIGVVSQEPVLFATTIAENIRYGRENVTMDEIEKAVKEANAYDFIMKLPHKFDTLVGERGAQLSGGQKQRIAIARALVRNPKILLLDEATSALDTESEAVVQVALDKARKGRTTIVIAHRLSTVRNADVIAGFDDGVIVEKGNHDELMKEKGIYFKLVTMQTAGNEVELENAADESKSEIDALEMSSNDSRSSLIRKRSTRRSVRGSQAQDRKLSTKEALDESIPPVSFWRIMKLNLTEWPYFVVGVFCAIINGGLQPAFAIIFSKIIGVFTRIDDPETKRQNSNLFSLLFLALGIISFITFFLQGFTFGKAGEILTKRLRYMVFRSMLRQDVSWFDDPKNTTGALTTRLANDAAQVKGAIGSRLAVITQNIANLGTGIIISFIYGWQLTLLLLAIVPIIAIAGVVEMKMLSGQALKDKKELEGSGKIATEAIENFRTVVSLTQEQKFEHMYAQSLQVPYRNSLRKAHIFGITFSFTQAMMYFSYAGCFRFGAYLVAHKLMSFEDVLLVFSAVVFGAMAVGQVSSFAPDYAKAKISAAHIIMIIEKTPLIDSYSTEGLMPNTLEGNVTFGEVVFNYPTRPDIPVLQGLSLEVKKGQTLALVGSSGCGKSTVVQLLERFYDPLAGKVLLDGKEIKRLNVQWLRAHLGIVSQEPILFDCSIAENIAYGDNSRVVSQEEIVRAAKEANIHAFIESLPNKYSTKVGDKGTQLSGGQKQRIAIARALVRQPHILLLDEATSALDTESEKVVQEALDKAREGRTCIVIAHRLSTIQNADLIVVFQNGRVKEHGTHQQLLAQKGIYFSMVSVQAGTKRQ

| Compound | IC50 (NCI-N87) | inhibition at 3 µM (CYP2C8) | inhibition at 3 µM (CYP3A4) | inhibition at 3 µM (CYP2D6) | microsomal CLint at 1 µM [1] | IC50 (HUVEC) | IC50 (MDA-MB-468) | inhibition at 3 µM (CYP2C9) | inhibition at 3 µM (CYP1A2) | IC50 (BT-474) | Papp A→B [2] | efflux ratio at 2 µM (MDR1 (ABCB1, P-gp)) |
| --- | --- | --- | --- | --- | --- | --- | --- | --- | --- | --- | --- | --- |
| COc1ccc2c(c1O)CCCC(CC(O)CO)=C2c1cc(OC)c(OC)c(OC)c1 (racemic) | > 1000 nM | 35.4% | 3.7% | 0% | 66.3 µL/min/mg | > 1000 nM | 919 nM | 6.1% | 0% | 990 nM | 16.1 ×10⁻⁶ cm/s |  |
| COc1ccc2c(c1O)CCCC(C)=C2c1cc(OC)c(OC)c(OC)c1 | 203 nM | 83.2% | 39.6% | 13.5% | 108 µL/min/mg | 78.4 nM | 44.6 nM | 91.5% | 19.7% | 52.3 nM | 6.2 ×10⁻⁶ cm/s | 13.1 |
| COc1ccc2c(c1O)CCCC(CCC#N)=C2c1cc(OC)c(OC)c(OC)c1 | 864 nM | 45.3% | 31.4% | 2.8% | > 320 µL/min/mg | 644 nM | 561 nM | 75.7% | 2.8% | 718 nM | 19.6 ×10⁻⁶ cm/s | 1.2 |
| COc1ccc2c(c1O)CCCC(Cc1ccccc1)=C2c1cc(OC)c(OC)c(OC)c1 | > 1000 nM | 83.5% | 33.9% | 26.2% | 51.2 µL/min/mg | 961 nM | > 1000 nM | 55.3% | 18.4% | > 1000 nM |  |  |
| COc1ccc2c(c1O)CCCC(CCC(N)=O)=C2c1cc(OC)c(OC)c(OC)c1 | > 1000 nM |  |  |  |  | 472 nM | > 1000 nM |  |  | > 1000 nM |  |  |
| COc1ccc(/C=C\c2cc(OC)c(OC)c(OC)c2)cc1O [COMBRETASTATIN A4] | 2.5 nM |  |  |  |  | 2.5 nM | 1.1 nM |  |  | 3.9 nM |  |  |
| COc1ccc2c(c1O)CCCC(CCN(C)C)=C2c1cc(OC)c(OC)c(OC)c1 | > 1000 nM |  |  |  |  | 251 nM | > 1000 nM |  |  | > 1000 nM |  |  |
| COc1ccc2c(c1O)CCCC(CCO)=C2c1cc(OC)c(OC)c(OC)c1 | 200 nM |  |  |  |  | 155 nM | 115 nM |  |  | 217 nM |  |  |
| COc1ccc2c(c1O)CC=CC=C2c1cc(OC)c(OC)c(OC)c1 | 5.6 nM |  |  |  |  | 5 nM | 4 nM |  |  | 5.5 nM |  |  |
| COc1ccc2c(c1O)CCCC=C2c1cc(OC)c(OC)c(OC)c1 | 3.8 nM | 77.6% | 16.1% | 6.2% | 54.1 µL/min/mg | 4.6 nM | 1.5 nM | 89.7% | 19% | 2.9 nM |  |  |
| COc1ccc2c(c1O)CCCC(CCCC#N)=C2c1cc(OC)c(OC)c(OC)c1 | 824 nM | 50.5% | 25.3% | 0.9% | 239 µL/min/mg | 700 nM | > 1000 nM | 23.7% | 1.5% | 922 nM | 16.6 ×10⁻⁶ cm/s |  |
| CCC1=C(c2cc(OC)c(OC)c(OC)c2)c2ccc(OC)c(O)c2CCC1 | 335 nM | 71.5% | 31.8% | 16% | 136 µL/min/mg | 193 nM | 304 nM | 75% | 11.3% | 355 nM | 3.3 ×10⁻⁶ cm/s | 1 |
| COc1cc2c(c(OC)c1OC)-c1ccc(OC)c(=O)cc1[C@@H](NC(C)=O)CC2 [COLCHICINE] | 5.4 nM | 20.4% |  | 7.7% |  | 13.2 nM | 2.1 nM | 11.1% |  | 3.8 nM | 0.76 ×10⁻⁶ cm/s |  |
| COc1ccc2c(c1O)C[C@@H]1C=C[C@@]2(c2cc(OC)c(OC)c(OC)c2)O1 (racemic) | 15.6 nM |  |  |  |  | 16 nM | 8.9 nM |  |  | 10.9 nM |  |  |
